Data from patent publication US20230057359A1, “NOVEL USE OF STEVIOL” (SUNTORY HOLDINGS LIMITED, priority 2019, published 2023).

Key:
Assay type in all cases: cell-based
[1] = test system: adipocytes differentiated from normal human subcutaneous preadipocytes; test: Lipolysis test in adipocytes (free glycerol in culture supernatant); conditions: for Relative lipolysis level (%): 24 hours, DMSO=100%
Procedure: Normal human subcutaneous preadipocytes were precultured using the growth medium in the same manner as in Example 1. The cells were detached using 0.25% trypsin-EDTA, seeded at 10,000 cells/100 μL/well to a 96-well plate using the growth medium, and cultured overnight in a CO2 incubator. On the next day, the medium was replaced with the differentiation medium (100 μL), and the cells were cultured for 10 days in a CO2 incubator to induce their differentiation into adipocytes. On the fourth and seventh days after the differentiation induction, the medium was replaced with a fresh differentiation medium (100 μL). Next, the medium was replaced with a differentiation medium supplemented with varying concentrations of steviol (10, 30 or 100 μg/mL, dissolved in 0.1% DMSO (final concentration)), and the cells were cultured for 24 hours in a CO2 incubator. Then, a free glycerol level in a culture supernatant was measured using Adipolysis Assay Kit (Cat. No. 10009381, Cayman Chemical Co.) according to the manufacturer's protocol. For the measurement, absorbance (540 nm) was measured using a plate reader (VARIOSKAN FLASH, Thermo Fisher Scientific Inc.), and a relative free glycerol concentration was calculated. A differentiation medium supplemented with 10 μM isoproterenol (ISP) was used as a positive control, and a vehicle control (DMSO) composed of a differentiation medium supplemented with 0.1% DMSO (final concentration) and a no-addition control composed of only the differentiation medium were used as negative controls. Significant difference among the test groups to be compared (no-addition group vs positive control group, vehicle control group vs steviol addition group) was tested by the Student's t test. The two-tailed test was conducted, and P<0.05 was regarded as having significant difference.

[2] = test system: adipocytes differentiated from normal human subcutaneous preadipocytes; test: Sugar uptake test in adipocytes (intracellular 2DG6P, Glucose Uptake-Glo); conditions: for Relative luminescence intensity (%) (relative intracellular 2DG6P level): 4 hours, DMSO=100%
Procedure: Normal human subcutaneous preadipocytes were precultured using the growth medium in the same manner as in Example 1. The cells were detached using 0.25% trypsin-EDTA, seeded at 10,000 cells/100 μL/well to a 96-well plate using the growth medium, and cultured overnight in a CO2 incubator. On the next day, the medium was replaced with the differentiation medium (100 μL). The cells were cultured for 10 days in a CO2 incubator to induce their differentiation into adipocytes. On the fourth and seventh days after the differentiation induction, the medium was replaced with a fresh differentiation medium (100 μL). Next, the medium was replaced with 100 μLL of a serum-free medium (PBM-2 medium supplemented with 2 mM L-glutamine, 50 μg/mL gentamycin, and 37 ng/mL amphotericin-B, Cat. No. PT-8002, Lonza Group AG), and the cells were cultured for 18 hours in a CO2 incubator. Subsequently, the medium was replaced with 100 μL of a glucose-free serum-free medium (DMEM, no glucose, Cat. No. 11966025, Thermo Fisher Scientific Inc.) supplemented with varying concentrations of steviol (10, 30 or 100 μg/mL, dissolved in 0.1% DMSO (final concentration)), and the cells were cultured for 4 hours in a CO2 incubator. A glucose-free serum-free medium supplemented with 100 μM acadesine (AICAR, Cat. No. A9978, Sigma-Aldrich Co., LLC) was used as a positive control, and a vehicle control composed of a glucose-free serum-free medium supplemented with 0.1% DMSO (final concentration) and a no-addition control composed of only a glucose-free serum-free medium were used as negative controls. After culture, intracellular 2-deoxyglucose-6-phosphate (2DG6P, 2-deoxyglucose (2DG) phosphorylation product) level was measured by the following procedures using Glucose Uptake-Glo Assay kit (Cat. No. J1341, Promega Corp.). The medium of each well was replaced with a DPBS solution (50 μL) supplemented with 1 mM 2DG. After incubation at room temperature for 10 minutes, a stop buffer (25 μL), a neutralization buffer (25 μL), and a 2DG6P detection reagent (100 μL) were added thereto. After incubation at room temperature for 60 minutes, luminescence intensity was measured using a plate reader (VARIOSKAN FLASH, Thermo Fisher Scientific Inc.), and relative luminescence intensity was regarded as a relative intracellular 2DG6P level. Significant difference among the test groups to be compared (no-addition group vs positive control group, vehicle control group vs steviol addition group) was tested by the Student's t test. The two-tailed test was conducted, and P<0.05 was regarded as having significant difference.

HepG2 cells = test: TG accumulation test in hepatocytes (Adipogenesis Assay Kit, oleic acid); conditions: 0.2 mM oleic acid, 24 hours, DMSO=100%
Procedure: HepG2 cells were precultured using the growth medium in the same manner as in Example 5. The cells were detached using 0.25% trypsin-EDTA, seeded at 30,000 cells/100 μL/well to a 96-well plate using the growth medium, and cultured overnight in a CO2 incubator. On the next day, the medium was replaced with 100 μL of a test medium (DMEM (high glucose) supplemented with 0.2 mM oleic acid (Cat. No. 03008, Sigma-Aldrich), 10% FBS and 1% penicillin-streptomycin) supplemented with varying concentrations of steviol (12.5, 25, 50, 100 or 200 μg/mL, dissolved in 0.1% DMSO (final concentration)). The cells were cultured for 24 hours in a CO2 incubator. A test medium supplemented with 2 mM metformin (Cat. No. M2009, Tokyo Chemical Industry Co., Ltd.) was used as a positive control (Metformin), and a vehicle control composed of a test medium supplemented with 0.1% DMSO (final concentration) was used as a negative control (DMSO). Cells cultured in a test medium containing no oleic acid was used as an untreated control (Untreated). The cells thus cultured were subjected to oil red staining in the same manner as in Example 3, followed by photographing and calculation of a relative fat accumulation level. An intracellular triglyceride (TG) level in cells separately cultured under the same conditions as in the cells employed in the oil red staining was quantified using Adipogenesis Assay Kit (BioVision Inc.) according to the manufacturer's protocol. Absorbance (570 nm) was measured using a plate reader (VARIOSKAN FLASH, Thermo Fisher Scientific Inc.), and a relative TG level was calculated. Significant difference of untreated group vs fat accumulation induction group (negative control group) was tested (two-tailed) by the Student's t test as to the relative fat accumulation level and the relative TG level, and P<0.05 was regarded as having significant difference. Also, significant difference of negative control group vs steviol addition group/positive control group was tested (two-tailed) by the Dunnett test, and P<0.05 was regarded as having significant difference. The results of the fat accumulation test are shown in Table 6 and FIG. 6, and the results of the TG accumulation test are shown in Table 7 and FIG. 7.

With `C=C1C[C@@]23CC[C@H]4[C@@](C)(CCC[C@@]4(C)C(=O)O)[C@@H]2CC[C@]1(O)C3` [Steviol, steviol] the “lipolysis in adipocytes (in words)” value ([1]; 10, 30 or 100 μg/mL) was “promoted lipolysis in adipocytes in a concentration-dependent manner”, the “Relative lipolysis level (%)” value ([1]; steviol 10 μg/mL) was 99.5% and the “Relative lipolysis level (%)” value ([1]; steviol 30 μg/mL) was 115.5%. For the same compound, the “Relative lipolysis level (%)” value ([1]; steviol 100 μg/mL) was 123.4%, the “sugar uptake in adipocytes (in words)” value ([2]; 10, 30 or 100 μg/mL) was “promoted sugar uptake in adipocytes in a concentration-dependent manner” and the “Relative luminescence intensity (%) (relative intracellular 2DG6P level)” value (“Relative luminescence intensity (%)” below) ([2]; steviol 10 μg/mL) was 109.6%. The “Relative luminescence intensity (%)” value ([2]; steviol 30 μg/mL) was 142.5%, the “Relative luminescence intensity (%)” value ([2]; steviol 100 μg/mL) was 216.2% and the “Relative TG level (%)” value (HepG2 cells; steviol 12.5 μg/mL) was 98.8%. The “Relative TG level (%)” value (HepG2 cells; steviol 25 μg/mL) was 90.0%, the “Relative TG level (%)” value (HepG2 cells; steviol 50 μg/mL) was 93.7% and the “Relative TG level (%)” value (HepG2 cells; steviol 100 μg/mL) was 89.4%. The “Relative TG level (%)” value (HepG2 cells; steviol 200 μg/mL) was 81.4%.
